According to US20090030079A1 (priority 2007, published 2009):
Where two headings read alike, the source gives them in different places.

Tests used:
[1] = Decorporation of Cobalt-60: tissue distribution and excretion of IV administered Co-60 in rats; type: in vivo, Male Wistar-Han rats; conditions: for Co-60 Dose % for animal group: single IV Co-60 14 KBq, 48 hr post exposure; for effect on total Co-60 excretion (urine and feces): monitored 2 days, not statistically significant, 15 mg/kg
Description: Materials. Chloride stock solution of ^60Co as ^60CoCl2 was diluted with sterile saline solution to adjust to the desired activity and used for the IV dosing. Activity of the dosing solution was determined using automated Wallac 1480 (Perkin Elmer) gamma counter equipped with 3 inch NaI(TI) crystal shielded detector.
Animals. Male Wistar-Han rats were obtained from Charles River Breeding Laboratory (Raleigh, N.C.) with indwelling jugular vein cannula. Animals were provided food and water ad libitum during acclimatization. The light cycle was 12 hour light/12 hour dark and relative humidity and temperature maintained at 50±15% and 22±2° C. All animal use protocols were approved by the Institutional Animal Care and Use Committee at Battelle, Pacific Northwest Division and studies were performed according to the “Guide for the Care and Use of Laboratory Animals” (National Research Council, Washington D.C., 1996).
Dosing regimen. Animals were restricted from food overnight prior to exposure. At the time of exposure, groups of animals (N=6) received a single intravenous (IV) injection (0.2 mL) of ^60Co solution at 14.0±0.6 KBq dose in sterile saline via an indwelling jugular vein cannula. […] The actual doses delivered were calculated based on the individual animal weights (Table 3). One group of animals was dosed with the radionuclide without subsequent administration of the chelation material to serve as control group. Following dosing, animals were placed in Nalgene metabolism cages for separate collection of urine and feces. […] Animals were sacrificed 48 hr post radionuclide administration. At sacrifice, blood and tissues (liver, kidney, spleen, gastrointestinal tract, muscle, bone, bone marrow, and lung) were collected, weighed and counted for radioactivity using a Wallac 1480 gamma counter. Gamma count data were normalized to percent administered dose after adjusting the grams of tissue collected for total organ mass.
Data statistical evaluation. Each data group was subjected to Dixon's Q-test to evaluate for potential outliers. In this test Q parameter of 0.625 (N=6, 95% confidence level, a=0.05) was used (1). For each tissue, a preliminary F-test (95% confidence level, a=0.05) for the equality of variances of the control and each treatment group was performed using Excel software. If the calculated probability p value was less than 0.05, the variances were assumed to be not equal. Based on this information, “T-test: Two-Sample Assuming Unequal Variances” or “T-test: Two-Sample Assuming Equal Variances” (95% confidence level, a=0.05) was performed using Excel software. The calculated p-value less than 0.05 provides evidence to reject the null hypothesis of equal means. The obtained statistical parameters listed in Table 4 served as guidelines for data evaluation (Table 5; calculation assumes that total skeleton, blood, or muscle is approximately 7.3, 6, or 40% of the body weight of the animal, respectively; Co-60 in skeleton is calculated based on the femur data—R. P. Brown, M. D. Delp, S. L. Undstedt, L. R. Rhomberg, and R. P. Beliles, Physiological Parameter Values for Physiologically Based Pharmacokinetic Models. Toxicology and Industrial Health, 1997, 13(4): 407-484).

[2] = Decorporation of Polonium-210: tissue distribution of IV administered Po-210 in rats; type: in vivo, Wistar-Han rats; conditions: for % Reduction of Po-210 vs Po-210 Control / effect on polonium-210 level (in words): oral 15 mg/kg x 5, day 6; for Po-210 dpm/gm for animal group: single IV Po-210 approx. 90 kBq, oral 15 mg/kg every 24 h x 5, sacrifice day 6
Description: The digested sample was diluted with distilled water to reduce the nitric acid to approximately 1 M. An aliquot of the resulting solution was added to Ultima Gold XR liquid scintillation cocktail (Packard BioScience, Meriden, Conn.), counted and corrected for possible quenching.

[3] = Cu^1+, cited from earlier work
[4] = Hg^2+, cited from earlier work
[5] = Ni^2+, cited from earlier work
[6] = Zn^2+, cited from earlier work
[7] = Cd^2+, cited from earlier work
[8] = Co^2+; cited from earlier work
[9] = Pb^2+, cited from earlier work
[10] = Ag^1+, cited from earlier work
[11] = In^3+, cited from earlier work
[12] = Tl^1+; cited from earlier work
[13] = single oral dose 15 mg/kg, day 1 post exposure

CC(C)(S)[C@@H](N)C(=O)O [Penicillamine, 3-mercapto-D-valine]
Co-60 Dose % for animal group ([1]; Blood, single oral dose 15 mg/kg): 0.089 ± 0.014% | % Reduction of Co-60 vs Co-60 Control ([1]; Blood, single oral dose 15 mg/kg, 48 hr): 0% | Co-60 Dose % for animal group ([1]; Bone Marrow, single oral dose 15 mg/kg): Below detection | Co-60 Dose % for animal group ([1]; Intestine, single oral dose 15 mg/kg): 0.94 ± 0.25% | % Reduction of Co-60 vs Co-60 Control ([1]; Intestine, single oral dose 15 mg/kg, 48 hr): 47% | Co-60 Dose % for animal group ([1]; Kidney, single oral dose 15 mg/kg): 0.31 ± 0.07% | % Reduction of Co-60 vs Co-60 Control ([1]; Kidney, single oral dose 15 mg/kg, 48 hr): 56% | Co-60 Dose % for animal group ([1]; Liver, single oral dose 15 mg/kg): 0.99 ± 0.25% | % Reduction of Co-60 vs Co-60 Control ([1]; Liver, single oral dose 15 mg/kg, 48 hr): 51% | Co-60 Dose % for animal group ([1]; Lung, single oral dose 15 mg/kg): 0.16 ± 0.07% | % Reduction of Co-60 vs Co-60 Control ([1]; Lung, single oral dose 15 mg/kg, 48 hr): 0% | Co-60 Dose % for animal group ([1]; Muscle, single oral dose 15 mg/kg): 0.63 ± 0.18% | % Reduction of Co-60 vs Co-60 Control ([1]; Muscle, single oral dose 15 mg/kg, 48 hr): 39% | Co-60 Dose % for animal group ([1]; Spleen, single oral dose 15 mg/kg): 0.056 ± 0.007% | % Reduction of Co-60 vs Co-60 Control ([1]; Spleen, single oral dose 15 mg/kg, 48 hr): 0% | Co-60 Dose % for animal group ([1]; Stomach, single oral dose 15 mg/kg): 0.041 ± 0.014% | % Reduction of Co-60 vs Co-60 Control ([1]; Stomach, single oral dose 15 mg/kg, 48 hr): 45% | Co-60 Dose % for animal group ([1]; Total Skeleton (from femur data), single oral dose 15 mg/kg): 0.32 ± 0.17% | % Reduction of Co-60 vs Co-60 Control ([1]; Total Skeleton, single oral dose 15 mg/kg, 48 hr): 49% | effect on blood levels of Co-60 ([1]; single oral dose 15 mg/kg, 48 hr): slightly decreased | effect on urinary elimination of Co-60 [1, 13]: did not change | increase of fecal elimination of Co-60 [1, 13]: about 3% | effect on total Co-60 excretion (urine and feces) ([1]; single oral dose 15 mg/kg): slightly increased | effect on total Co-60 excretion (urine and feces) ([1]; single oral dose 15 mg/kg, listed as penicillamine): appeared to accelerate | reduction in the fraction of administered dose in the skeleton (based on femur data), liver and kidney ([1]; single oral dose, Co-60): 51-56% | % Reduction of Po-210 vs Po-210 Control ([2]; Blood): 18% | Po-210 dpm/gm for animal group ([2]; Blood): 28482 ± 6375 dpm/gm | Po-210 dpm/gm for animal group ([2]; Femur): 22969 ± 4055 dpm/gm | % Reduction of Po-210 vs Po-210 Control ([2]; Kidney): −15% | Po-210 dpm/gm for animal group ([2]; Kidney): 216172 ± 31993 dpm/gm | % Reduction of Po-210 vs Po-210 Control ([2]; Liver): 12% | Po-210 dpm/gm for animal group ([2]; Liver): 124648 ± 47423 dpm/gm | % Reduction of Po-210 vs Po-210 Control ([2]; Lung): 20% | effect on polonium-210 level (in words) ([2]; Lung): reduced | Po-210 dpm/gm for animal group ([2]; Lung): 67342 ± 7895 dpm/gm | Po-210 dpm/gm for animal group ([2]; Spleen): 236736 ± 35488 dpm/gm | % Reduction of Po-210 vs Po-210 Control ([2]; femur): 13% | effect on polonium-210 level (in words) ([2]; femur): reduced | % Reduction of Po-210 vs Po-210 Control ([2]; spleen): 44% | effect on polonium-210 level (in words) ([2]; spleen): reduced | binding stability constant (log K) [3]: 18.18 (Cu^1+) | binding stability constant (log K) ([3]; listed as penicillamine): very strongly | binding stability constant (log K) [4]: 16.3 | binding stability constant (log K) ([4]; listed as penicillamine): very strongly | binding stability constant (log K) [5]: 10.70 | binding stability constant (log K) ([5]; listed as penicillamine): fairly strong | binding stability constant (log K) [6]: 9.71 | binding stability constant (log K) ([6]; listed as penicillamine): fairly strong | binding stability constant (log K) [7]: 11.55 | binding stability constant (log K) ([7]; listed as penicillamine): fairly strong | binding stability constant (log K) [8]: 8.98 | binding stability constant (log K) [9]: 12.3 | binding stability constant (log K) ([9]; listed as penicillamine): fairly strong | binding stability constant (log K) [10]: 12.4 | binding stability constant (log K) ([10]; listed as penicillamine): fairly strong | binding stability constant (log K) [11]: 15.33 | binding stability constant (log K) ([11]; listed as penicillamine): very strongly | binding stability constant (log K) [12]: 3.58
